In patent publication US9562053B2, “Benzo-fused heterocyclic derivatives useful as agonists of GPR120” (Janssen Pharmaceutica NV, priority 2013, dated 2017) one finds EC50 data, which are given here for 9 molecules.

What all share (format): cell-based
The target in assay [1] is T1, short form of the GPR120 receptor (Homo sapiens, UniProt Q5NUL3).
T1 construct: host or cells: PathHunter CHO-K1 GPR120S β-Arrestin Cell Line
T1 sequence (Q5NUL3 1-361): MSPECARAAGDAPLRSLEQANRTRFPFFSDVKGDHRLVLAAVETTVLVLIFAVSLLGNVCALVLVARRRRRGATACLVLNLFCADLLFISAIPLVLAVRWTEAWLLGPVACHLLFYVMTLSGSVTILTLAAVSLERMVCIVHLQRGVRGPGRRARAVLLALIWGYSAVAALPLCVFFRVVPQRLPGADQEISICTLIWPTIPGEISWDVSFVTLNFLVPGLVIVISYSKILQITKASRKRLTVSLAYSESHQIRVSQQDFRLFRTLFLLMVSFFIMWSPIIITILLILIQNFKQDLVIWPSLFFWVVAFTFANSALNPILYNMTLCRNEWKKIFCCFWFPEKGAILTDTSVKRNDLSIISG
The assay is described as follows: Human GPR120 DiscoveRx PathHunter Beta-Arrestin Assay, Procedure β-arrestin B (5000 cells/well). From the text: (§1) The binding of an agonist (medium/long chain fatty acids or small molecule agonists) to the G-protein-coupled receptor GPR120 activates phospholipase C, leading to release of intracellular Ca^+2 through the generation of inositol 1,4,5-trisphosphate (InsP3 or IP3). GPR120 activation can also trigger intracellular signaling via recruitment of β-Arrestin. In the present method, agonist-induced activation of the human GPR120 receptor is monitored through the use of PathHunter CHO-K1 GPR120 β-Arrestin Cell Line engineered by DiscoveRx, as detailed below. The cell lines are designed to co-express both the ProLink/Enzyme Donor (PK)-tagged GPCR and the Enzyme Activator (EA)-tagged β-Arrestin fusion proteins. Upon GPR120 receptor stimulation/activation, the EA-tagged β-Arrestin portion is translocated to the tagged receptor, where the two enzyme fragments are brought within close proximity. Under these conditions, these fragments can interact and form an active Beta-gal enzyme complex through Enzyme Fragment Complementation (EFC). This active Beta-gal complex can enzymatically hydrolyse the substrate to produce a detectable light signal; therefore, activation as a function of agonist concentration can be expressed as an EC50 value to determine relative compound activities. This in vitro assay therefore serves to assess compound agonist activity of the GPR120.
In Procedure β-arrestin B the cells used were PathHunter CHO-K1 GPR120S β-Arrestin Cell Line, expressing the short form of the GPR120 receptor (Accession #NM_181745), with 5000 cells/well.
(§2) The selected CHO-K1 GPR120 β-Arrestin cells were cultured in Ham's F12 media supplemented with 10% fetal bovine serum (FBS), 1% Glutamine, 1×p/s, 800 μg/ml G418 and 300 μg/ml Hygromycin B (for selection). Cell stocks were maintained and grown in a sub-confluent state using standard cell culture procedures. The day before the experiment, the cells were harvested with non-enzymatic cell dissociation buffer and re-suspended in complete growth media at the desired concentration. A Corning 384-plate was then seeded with the proper number of cells in a volume of 25 μL, per well. The seeded plates were incubated overnight at 37° C.
(§3) On the day of the experiment, the Assay Buffer containing (a) HBSS with Ca^++ and Mg^++, (b) 20 mM HEPES, and (c) 0.1% BSA stabilizer (pH 7.4) was prepared. The growth medium was gently removed from the cell plates and 20 μL of Assay Buffer added to each well. The plate was then incubated at 37° C. for 60 mins. Test compounds were serially diluted in Assay Buffer to desired concentrations (more particularly, to one or more of the following μM concentrations: 25 μM, 12.5 μM, 6.25 μM, 3.125 μM, 1.562 μM, 0.781 μM, 0.391 μM, 0.195 μM, 0.098 μM, 0.049 μM, 0.024 μM, 0.012 μM). Five μl of compound dilution was then added to each well and the plate incubated at 37° C. for 90 mins. The detection reagents were prepared according to the manufacture's instruction. Twelve μL of the detection reagents were added to each well and the plate incubated at room temperature for 60 mins.
(§4) The plates were read on an EnVision instrument, using Protocol name: Luminescence, Plate type: 384 Costar, Measurement height: 3 mm, Measurement time: 1 s, Aperture: 384 Plate aperture. The % activity relative to the positive control was calculated using the following equation:
(§5) The % Activity values were plotted versus the concentration of test compound and fitted to a sigmoidal dose-response curve with a Hill slope=1 (fixed value) using nonlinear regression with GraphPad Prism 5.0 to calculate the EC50 values. The Fitting Equation was: Y=Bottom+(Top−Bottom)/(1+10^((LogEC50−X)*HillSlope)), where X is the log of the concentration and Y is the response.

A further assay concerns the target T2, Human GPR120 short form (Homo sapiens, UniProt Q5NUL3).
T2 construct: expressed in transfected cells
T2 sequence (Q5NUL3 1-361): T1 sequence (Q5NUL3 1-361)
The assay is described as follows: Human GPR120 in Calcium Flux Assay, Procedure Calcium A (2500 cells/well). From the text: This in vitro assay serves to assess test compound agonist activity against the short splice variant (SVS with Accession number NM_001195755.1 confirmed by sequencing data) of the GPR120 receptor. The Human Short splice variant #2 (NM_001195755.1) is missing an in-frame coding exon compared to variant 1 (the Human Long splice variant NM_181745.3), resulting in a shorter isoform (GPR120-S) lacking a 16 aa protein segment compared to isoform GPR120-L. The assay platform utilizes HEK-293 cells stably transfected to express the Human GPR120 short form. These cells are first loaded with the Ca^+2 sensitive dye, Fluo-4 NW. Upon stimulation, intracellular released Ca^+2 can bind to the dye and alter its fluorescence intensity. This increase in fluorescence signal, and thus the flux in intracellular [Ca^+2], is detected and quantitated by fluorescence imaging using a FLIPR reader. The effect of the agonist is measured as a function of concentration and used to calculate an EC50 based upon a response curve.
In this procedure 2500 cells/well were employed.
A Human GPR120 clone (Genbank accession number NM_001195755.1) was placed into the pcDNA3.1 mammalian expression vector carrying the neomycin resistance gene. A stable mammalian cell was generated by placing the above clone into a HEK293 background. Clonal cells responding to long chain fatty acids had expression levels of GPR120 confirmed by RT-qPCR. Human HEK-GPR120 cells were cultured in Dulbecco's Modified Eagle's Medium (DMEM)/F12 medium supplemented with 10% fetal bovine serum (FBS), 1% L-Glutamine and 1% penicillin/streptomycin and 0.5 mg/ml G-418. Cells were split 2 times a week to keep the cells in the log-phase growth.
In preparation for the assay, HEK cells stably transfected with Human GPR120 (2.5K cells per well in 25 uL growth medium) were seeded into 384-well plates and then incubated overnight (37° C., 5% CO2). The next day, the media was changed to 20 μl assay buffer and the cell starved for 1 h at 37° C. The dye loading solution (2× dye) was prepared using 10 ml assay buffer, 100 μl of 250 mM probenecid, 1 bottle of Component A, and 20 μl of dye in DMSO. Twenty μl of the 2× dye loading buffer was then added to each well. The plates were incubated at 37° C. for 30 min, then at room temperature for an additional 15 minutes, before performing the assay on FLIPR.
Test compounds were prepared in assay buffer (2 μl of test compound+198 μl assay buffer, final DMSO in assay plate is 0.2%) at the desired concentration, more particularly at 100 μM, 50 μM, 25 μM, 12.5 μM, 6.25 μM, 3.125 μM, 1.562 μM, 0.781 μM, 0.391 μM, 0.195 μM, 0.098 μM, 0.049 μM, 0.024 μM and 0.012 μM.
The assay was performed on a FLIPR plate reader using the following parameters. Baseline was read for 10 seconds at 1 sec intervals. The program was set to transfer 10 μL of ligand from compound plate to cell plate after baseline reading. Aspiration was executed at: 10 μl/sec speed, 4.6 μl height; Dispensing was executed at: 30 μl/sec speed, 45 μl height. After compound addition, each well was read for 300 sec, with measurements collected at 1 sec intervals.
The kinetic data from the FLIPR was based upon a 5 minute window for data collection. The fluorescence of each sample well was used for individual calculations of a normalized RFU value, which was defined as maximum response minus the minimum response. The normalized fluorescence reading (RFU) was calculated as follows: RFU=Fmax−Fmin
The data were fitted to a sigmoidal dose-response curve with a variable Hill slope (<2) using nonlinear regression with GraphPad Prism 5.0 to calculate the EC50 values. The Fitting Equation was: Y=Bottom+(Top−Bottom)/(1+10^((LogEC50−X)*HillSlope)), where X is the log of the concentration and Y is the response.

The target of assay [2] is T3, long form of human GPR120 (Homo sapiens, UniProt Q5NUL3).
T3 construct: host or cells: PathHunter CHO-K1 GPR120 β-Arrestin Cell Line
T3 sequence (Q5NUL3 1-377 isoform Q5NUL3-1): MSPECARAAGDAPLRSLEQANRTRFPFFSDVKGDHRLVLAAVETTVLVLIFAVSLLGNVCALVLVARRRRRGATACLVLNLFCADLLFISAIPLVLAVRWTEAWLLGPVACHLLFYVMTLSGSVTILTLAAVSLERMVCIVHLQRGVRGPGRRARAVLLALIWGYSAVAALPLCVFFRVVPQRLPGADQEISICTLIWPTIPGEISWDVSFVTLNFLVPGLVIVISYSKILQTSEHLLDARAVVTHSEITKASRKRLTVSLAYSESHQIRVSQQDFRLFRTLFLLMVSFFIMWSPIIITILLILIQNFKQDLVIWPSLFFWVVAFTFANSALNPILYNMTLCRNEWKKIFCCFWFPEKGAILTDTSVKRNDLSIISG
The assay is described as follows: Human GPR120 DiscoveRx PathHunter Beta-Arrestin Assay, Procedure β-arrestin A (3000 cells per well). To be noted: read-out: GPR120 B-arrestin A EC50.
Description: as §1
In Procedure β-arrestin A, the cell used were PathHunter CHO-K1 GPR120 β-Arrestin Cell Line, expressing the long form of human GPR120 (Genbank accession number NM_181745), with 3000 cells per well.
as §2, §3, §4, §5

A word on the EC50: it is the concentration giving half of the maximal effect. Consider `Cc1c(CCC(=O)O)ccc(OCc2cc(F)cc3sc(CC(C)C)nc23)c1C` [Compound 115, 3-(4-{[6-Fluoro-2-(2-methylpropyl)-1,3-benzothiazol-4-yl]methoxy}-2,3-dimethylphenyl)propanoic acid], for which the EC50 in assay [1] amounted to 772 nM; on Human GPR120 short form, 468 nM.
Take `CCCc1cc2cc(C(C)(F)F)cc(COc3ccc(CCC(=O)O)c(C)c3C)c2o1` [Compound 79, 3-(4-{[5-(1,1-Difluoroethyl)-2-propyl-1-benzofuran-7-yl]methoxy}-2,3-dimethylphenyl)propanoic acid]: in assay [2], the EC50 turned out to be 2220 nM.
In the case of `Cc1cc2cc(OC(F)(F)F)cc(COc3ccc(CCC(=O)O)c(C(F)(F)F)c3)c2o1` [Compound 112, 3-[4-{[2-Methyl-5-(trifluoromethoxy)-1-benzofuran-7-yl]methoxy}-2-(trifluoromethyl)phenyl]propanoic acid], the 50% effective concentration (EC50) in assay [1] is 110 nM; at Human GPR120 short form, 121 nM.
Turning to `Cc1cc2c(COc3ccc(CCC(=O)O)c(F)c3F)cccc2o1` [Compound 6, 3-{2,3-Difluoro-4-[(2-methyl-1-benzofuran-4-yl)methoxy]phenyl}propanoic acid], the EC50 in assay [2] was > 20000 nM.
Regarding `Cc1nc2cc(Cl)cc(COc3ccc(CCC(=O)O)c(C)c3C)c2s1` [Compound 121, 3-{4-[(5-Chloro-2-methyl-1,3-benzothiazol-7-yl)methoxy]-2,3-dimethylphenyl}propanoic acid], the half-maximal effective concentration (EC50) amounted to 1190 nM in assay [1] and 382 nM at Human GPR120 short form.
Molecule `Cc1c(CCC(=O)O)ccc(OCc2cc(Cl)cc3sc(C(F)(F)F)nc23)c1C` [Compound 119, 3-(4-{[6-Chloro-2-(trifluoromethyl)-1,3-benzothiazol-4-yl]methoxy}-2,3-dimethylphenyl)propanoic acid] registered an EC50 in assay [1] of 1440 nM.
Turning to `Cc1nc2c(COc3ccc(CCC(=O)O)c(C)c3C)cc(OC(F)(F)F)cc2s1` [Compound 118, 3-(2,3-Dimethyl-4-{[2-methyl-6-(trifluoromethoxy)-1,3-benzothiazol-4-yl]methoxy}phenyl)propanoic acid], the EC50 in assay [1] was 237 nM; on Human GPR120 short form, 65 nM.
For `Cc1c(CCC(=O)O)ccc(OCc2cc(F)cc3sc(C(F)(F)F)nc23)c1C` [Compound 117, 3-(4-{[6-Fluoro-2-(trifluoromethyl)-1,3-benzothiazol-4-yl]methoxy}-2,3-dimethylphenyl)propanoic acid], in that order: 681 nM and 422 nM.
On to `Cc1oc2cccc(COc3ccc(CCC(=O)O)c(F)c3F)c2c1C` [Compound 1, 3-{4-[(2,3-Dimethyl-1-benzofuran-4-yl)methoxy]-2,3-difluorophenyl}propanoic acid], for which the EC50 in assay [2] is > 20000 nM.
